In PubChem BioAssay (NCI):
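96-well plates; 48 h exposure; 5 concentrations. Endpoints by linear interpolation between flanking doses. Not reached: highest tested concentration assigned. TGI marks complete inhibition of growth.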

Legend:
Assay in all cases: growth of human tumour cells (NCI), 48 h
[1] = tested on: SK-MEL-28 melanoma
[2] = tested on: ACHN renal
[3] = tested on: TK-10 renal
[4] = tested on: NCI-H226 lung
[5] = tested on: NCI-H460 lung
[6] = tested on: UACC-257 melanoma
[7] = tested on: HCC-2998 colon
[8] = tested on: SK-OV-3 ovarian
[9] = tested on: HCT-116 colon
[10] = tested on: NCI-H522 lung
[11] = tested on: T-47D breast
[12] = tested on: COLO 205 colon
[13] = tested on: SF-295 CNS
[14] = tested on: K-562 leukemia
[15] = tested on: HS 578T breast
[16] = tested on: UACC-62 melanoma
[17] = tested on: A549 NSCLC
[18] = tested on: A498 renal
[19] = tested on: SR leukemia
[20] = tested on: HOP-62 NSCLC
[21] = tested on: UO-31 renal
[22] = tested on: NCI-H23 lung
[23] = tested on: MDA-N
[24] = tested on: CAKI-1 renal
[25] = tested on: SNB-75 CNS
[26] = tested on: HT29 colon
[27] = tested on: IGROV1 ovarian
[28] = tested on: CCRF-CEM leukemia
[29] = tested on: MDA-MB-231 breast
[30] = tested on: SNB-19 CNS
[31] = tested on: PC-3 prostate
[32] = tested on: SF-268 CNS
[33] = tested on: SW-620 colon
[34] = tested on: SK-MEL-2 melanoma
[35] = tested on: KM12 colon
[36] = tested on: NCI/ADR-RES ovarian
[37] = tested on: SN12C renal
[38] = tested on: MCF7 breast
[39] = tested on: OVCAR-4 ovarian
[40] = tested on: OVCAR-3 ovarian
[41] = tested on: SK-MEL-5 melanoma
[42] = tested on: BT-549 breast
[43] = tested on: U251 CNS
[44] = tested on: MOLT-4 leukemia
[45] = tested on: OVCAR-5 ovarian
[46] = tested on: HL-60(TB) leukemia
[47] = tested on: EKVX NSCLC
[48] = tested on: 786-0 renal
[49] = tested on: HCT-15 colon
[50] = tested on: DU-145 prostate
[51] = tested on: OVCAR-8 ovarian
[52] = tested on: M14 melanoma
[53] = tested on: HOP-92 NSCLC
[54] = tested on: MDA-MB-435
[55] = tested on: SF-539 CNS
[56] = tested on: RPMI-8226 leukemia
[57] = tested on: MALME-3M melanoma
[58] = tested on: LOX IMVI melanoma
[59] = tested on: RXF 393 renal

Measured: TGI

N#Cc1c[nH]n2ccnc12
not listed: [53] | [54] | [55] | [56] | [57] | [58] | [59]
> 100 µM: all other assays above

C=CC1OC(CCCOC(=O)C(C)(C)C)O[C@@H]1CC (stereo not given in full)
not listed: [7] | [9] | [14] | [42] | [48] | [57] | [58] | [59]
> 100 µM: all other assays above

O=C(O)Cc1ccc(N2N=C(c3ccccc3)CC2=O)cc1
not listed: [17] | [48] | [53] | [54] | [55] | [56] | [58] | [59]
> 100 µM: all other assays above

Cc1ccc(S(=O)(=O)N2CCSCCSCCN(S(=O)(=O)c3ccc(C)cc3)CCN(S(=O)(=O)c3ccc(C)cc3)CC2)cc1
not listed: [16] | [19] | [25]
> 100 µM: all other assays above
